One series has as its target T1, purified human Slack (Homo sapiens, UniProt Q5JUK3).
T1 construct: NM_02 0822.3, residues 1–1235; green fluorescent protein (GFP) (C, cleaved yes); twin strep-II-tag (C, cleaved yes); made in house; host or cells: HEK293F cells, transient transfection
T1 sequence (Q5JUK3 1-1235 isoform Q5JUK3-3): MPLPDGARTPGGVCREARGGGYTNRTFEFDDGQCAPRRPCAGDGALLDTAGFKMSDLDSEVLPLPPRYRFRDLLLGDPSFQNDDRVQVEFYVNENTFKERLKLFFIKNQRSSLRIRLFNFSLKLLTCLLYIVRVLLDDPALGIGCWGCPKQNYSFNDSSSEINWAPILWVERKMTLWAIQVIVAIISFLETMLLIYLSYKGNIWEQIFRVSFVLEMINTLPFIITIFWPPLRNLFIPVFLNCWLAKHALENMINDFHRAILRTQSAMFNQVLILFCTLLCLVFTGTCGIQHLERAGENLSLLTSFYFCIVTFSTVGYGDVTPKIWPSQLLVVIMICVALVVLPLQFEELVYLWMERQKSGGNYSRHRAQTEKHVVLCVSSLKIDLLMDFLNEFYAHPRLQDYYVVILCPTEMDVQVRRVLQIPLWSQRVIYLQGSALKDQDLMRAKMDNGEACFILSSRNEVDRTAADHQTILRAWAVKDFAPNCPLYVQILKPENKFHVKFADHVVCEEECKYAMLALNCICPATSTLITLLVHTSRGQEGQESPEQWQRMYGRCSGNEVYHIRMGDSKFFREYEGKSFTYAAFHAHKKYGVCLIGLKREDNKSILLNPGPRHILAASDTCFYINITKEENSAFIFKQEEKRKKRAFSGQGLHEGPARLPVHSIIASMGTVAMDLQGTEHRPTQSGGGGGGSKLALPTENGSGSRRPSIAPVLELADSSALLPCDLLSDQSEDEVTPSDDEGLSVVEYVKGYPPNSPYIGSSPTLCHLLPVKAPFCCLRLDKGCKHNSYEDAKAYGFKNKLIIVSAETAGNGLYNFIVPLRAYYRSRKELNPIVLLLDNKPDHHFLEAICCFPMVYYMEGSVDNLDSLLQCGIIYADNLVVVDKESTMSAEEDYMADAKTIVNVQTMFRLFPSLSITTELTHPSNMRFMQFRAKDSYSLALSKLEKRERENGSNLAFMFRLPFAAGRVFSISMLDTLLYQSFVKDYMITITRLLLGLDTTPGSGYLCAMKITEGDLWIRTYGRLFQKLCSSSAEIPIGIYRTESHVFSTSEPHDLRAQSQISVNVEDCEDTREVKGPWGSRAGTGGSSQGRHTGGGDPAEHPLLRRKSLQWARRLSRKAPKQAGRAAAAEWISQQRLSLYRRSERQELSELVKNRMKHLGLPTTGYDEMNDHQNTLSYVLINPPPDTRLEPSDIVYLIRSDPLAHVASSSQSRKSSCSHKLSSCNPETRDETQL
As to the kind of experiment: Differential scanning fluorimetry (DSF) on purified Slack. Format: binding. To be noted: 100 µM ligand concentration; for melting temperature Tm of Slack: Tm without ligand 30 °C. The procedure: To confirm that the cellular effect of compound 6 was mediated by its direct interaction with Slack, ligand binding on purified human Slack (Figure S6A, Supporting Information) was assessed by differential scanning fluorimetry (DSF), thereby evaluating a ligand‐dependent shift of the protein melting temperature (T m). The cysteine‐reacting dye 7‐diethylamino‐3‐(4‐maleimidophenyl)−4‐methylcoumarin (CPM), which binds to cysteine residues that are accessible during protein unfolding, was used as an indicator for protein unfolding. […] In the presence of a Slack inhibitor (compound 31 from ref. [27]), known to directly interact with the protein and therefore used as a positive control, T m saturated at 45.7 ± 3.2 °C at a ligand concentration of 100 µM (Figure S6B, Supporting Information), indicating a notable stabilization of Slack.
The melting temperature was determined from the fluorescence of 7‐diethylamino‐3‐(4‐maleimidophenyl)−4‐methylcoumarin (CPM) dye. […] Five microliters of the CPM dye (15 µg mL^−1 CPM final concentration) in the SEC buffer was added to the protein compound mixture and further incubated for 30 min on ice in the dark. The samples were centrifuged at 15 000 × g at 4 °C for 10 min to remove aggregates. Melting curves were recorded in an RT‐PCR (Thermo Fischer) using a temperature range of 10–80 °C in 1 °C‐increments, increasing every 75 s. The CPM dye was excited at a wavelength of 365 nm and the emission was measured at 470 nm.
(In general: In DSF a fluorescence change marks the thermal transition of the protein.)

For another series, the target named is T2, dopamine D1 receptor (Homo sapiens, UniProt P21728).
T2 construct: purchased Eurofins Cerep P270
The series can be described thus: SafetyScreen44 panel. Format: binding. How it is done:
(§1) Measurements were performed in duplicate.
(§2) channel, which were obtainedfrom ratspecimens).
(§3) in brackets) specific for each target.

The next series concerns the target T3, dopamine D2S receptor (Homo sapiens, UniProt P14416).
T3 construct: purchased Eurofins Cerep P270
As to the kind of experiment: SafetyScreen44 panel. Format: binding. How it is done:
as §1, §2, §3

Series [1] addresses T4, norepinephrine transporter (NET) (Homo sapiens, UniProt P23975).
T4 construct: purchased Eurofins Cerep P270
As to the kind of experiment: SafetyScreen44 panel. Format: binding. The procedure: as §1, §2, §3

Series [2] addresses T5, serotonin 5-HT2B receptor (Homo sapiens, UniProt P41595).
T5 construct: purchased Eurofins Cerep P270
The series can be described thus: SafetyScreen44 panel. It is filed as binding. How it is done: as §1, §2, §3

Series [3] has as its target T6, serotonin transporter (SET) (Homo sapiens, UniProt P31645).
T6 construct: purchased Eurofins Cerep P270
The series can be described thus: SafetyScreen44 panel. Format: binding. How it is done: as §1, §2, §3

Series [4] relates to mice. The series can be described thus: Accelerating rotarod test. Format: in vivo, mouse. To be noted: 15 min after dosing. How it is done:
As a prerequisite for interpreting itch behavior experiments, we first tested motor function after systemic dosing.
Mice were placed on a rotarod treadmill (Ugo Basile, Italy) at increasing speed (4–40 rpm over 300 s) and trained for 4–5 consecutive days. Only mice that reached 300 s without falling off during the training sessions were included in the experiment. In the vertical pole test, the mice were placed head‐upward on top of a vertical pole with a rough surface (diameter, 1 cm; height, 40 cm), and the time until the animals reached the ground was recorded (cut‐off time 20 s). Only mice that reached the ground within 10 s in the baseline measurements were included in the experiment. […] The means of three trials at each time point were calculated for further analyses.
(In general: In the rotarod test animals must keep their balance on a rotating rod.)

The subject of series [5] is mice. As to the kind of experiment: Chloroquine-induced itch behavior, wildtype mice. Format: in vivo, mouse. How it is done:
We then assessed the antipruritic efficacy of compound 6 in a model of histamine‐independent itching induced by the antimalarial drug chloroquine.
Three to four days before the day of the experiment, the fur on the dorsolateral aspect of the neck was shaved under brief isoflurane anesthesia. On the testing day, the mice were habituated to a Plexiglas cylinder (30 cm in diameter) for 30 min. Compound 6 hydrochloride or vehicle were i.p. or p.o. administered, and 15 min later, the pruritogens chloroquine (200 µg), SLIGRL (100 µg), β‐alanine (100 µg), or histamine (800 µg), all dissolved in 0.9% saline (20 µL), were injected subcutaneously into the nape of the neck.^[ [29] ^] Number of scratching bouts directed toward the nape of the neck was assessed over 30 min by videotaping. In experiments with the Slack inhibitor, compound 31 (ref. [27]; 30 mg kg^−1 in 0.9% NaCl with 2% DMSO and 10% Kolliphor) was i.p. administered 5 min prior to compound 6.

From PMC11022729 (Advanced Science, 2024) come the findings set out here.

T6 sequence (P31645 whole entry): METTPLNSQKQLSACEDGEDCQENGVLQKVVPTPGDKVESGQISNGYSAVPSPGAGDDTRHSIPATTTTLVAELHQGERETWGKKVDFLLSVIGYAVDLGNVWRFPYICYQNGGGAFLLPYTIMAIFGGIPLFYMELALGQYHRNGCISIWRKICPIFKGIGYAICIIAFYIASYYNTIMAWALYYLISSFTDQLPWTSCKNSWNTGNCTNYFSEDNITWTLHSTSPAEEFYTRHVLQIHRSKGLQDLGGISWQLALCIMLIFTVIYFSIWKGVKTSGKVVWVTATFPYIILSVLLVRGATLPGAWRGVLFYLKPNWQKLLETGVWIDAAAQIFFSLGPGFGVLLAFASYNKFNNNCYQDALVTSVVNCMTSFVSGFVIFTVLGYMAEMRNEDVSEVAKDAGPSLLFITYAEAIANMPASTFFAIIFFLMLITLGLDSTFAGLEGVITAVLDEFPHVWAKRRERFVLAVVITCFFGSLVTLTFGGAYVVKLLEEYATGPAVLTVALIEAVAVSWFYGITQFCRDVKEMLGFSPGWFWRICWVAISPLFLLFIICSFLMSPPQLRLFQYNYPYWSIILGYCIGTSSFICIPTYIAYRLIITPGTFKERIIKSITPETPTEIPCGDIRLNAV
T5 sequence (P41595 whole entry): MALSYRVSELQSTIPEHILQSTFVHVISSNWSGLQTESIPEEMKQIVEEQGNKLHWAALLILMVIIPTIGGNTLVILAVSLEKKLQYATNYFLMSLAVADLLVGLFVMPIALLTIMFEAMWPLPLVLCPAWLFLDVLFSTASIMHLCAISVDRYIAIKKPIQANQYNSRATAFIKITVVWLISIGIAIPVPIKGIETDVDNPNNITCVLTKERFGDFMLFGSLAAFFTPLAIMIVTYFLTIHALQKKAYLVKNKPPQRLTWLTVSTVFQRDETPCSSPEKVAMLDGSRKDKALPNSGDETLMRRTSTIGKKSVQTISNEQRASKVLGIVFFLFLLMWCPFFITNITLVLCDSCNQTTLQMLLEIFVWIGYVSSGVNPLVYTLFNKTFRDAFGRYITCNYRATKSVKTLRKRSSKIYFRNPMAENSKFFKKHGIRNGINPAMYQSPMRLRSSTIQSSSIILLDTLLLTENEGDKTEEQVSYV
T2 sequence (P21728 whole entry): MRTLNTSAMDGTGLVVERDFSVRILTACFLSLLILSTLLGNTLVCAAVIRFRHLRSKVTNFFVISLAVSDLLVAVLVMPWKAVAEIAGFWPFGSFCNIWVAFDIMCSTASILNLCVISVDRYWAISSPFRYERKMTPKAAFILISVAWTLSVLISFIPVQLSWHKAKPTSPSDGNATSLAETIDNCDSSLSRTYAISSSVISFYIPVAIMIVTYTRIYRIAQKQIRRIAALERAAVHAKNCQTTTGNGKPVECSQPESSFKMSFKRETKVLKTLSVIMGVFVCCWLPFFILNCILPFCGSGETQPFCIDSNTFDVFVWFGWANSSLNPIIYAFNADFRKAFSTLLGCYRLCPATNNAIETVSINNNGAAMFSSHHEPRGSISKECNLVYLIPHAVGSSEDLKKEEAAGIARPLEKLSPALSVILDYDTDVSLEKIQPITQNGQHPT
T4 sequence (P23975 whole entry): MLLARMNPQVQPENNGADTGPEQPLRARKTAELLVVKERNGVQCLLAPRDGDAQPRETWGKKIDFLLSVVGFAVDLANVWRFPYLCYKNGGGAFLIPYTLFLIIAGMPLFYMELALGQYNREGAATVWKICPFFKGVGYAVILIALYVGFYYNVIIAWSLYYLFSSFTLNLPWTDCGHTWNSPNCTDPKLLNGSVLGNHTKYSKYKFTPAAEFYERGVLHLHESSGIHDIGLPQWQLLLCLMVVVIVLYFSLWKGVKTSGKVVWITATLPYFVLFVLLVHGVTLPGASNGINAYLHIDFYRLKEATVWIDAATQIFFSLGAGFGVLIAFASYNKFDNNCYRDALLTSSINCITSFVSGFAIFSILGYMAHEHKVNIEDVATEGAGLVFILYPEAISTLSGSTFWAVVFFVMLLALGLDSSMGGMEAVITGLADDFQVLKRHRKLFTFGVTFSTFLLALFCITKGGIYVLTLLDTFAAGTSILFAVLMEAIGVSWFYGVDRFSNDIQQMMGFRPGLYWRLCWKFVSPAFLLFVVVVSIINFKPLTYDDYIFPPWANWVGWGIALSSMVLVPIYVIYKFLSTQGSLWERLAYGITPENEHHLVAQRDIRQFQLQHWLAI
T3 sequence (P14416 1-414 isoform P14416-2): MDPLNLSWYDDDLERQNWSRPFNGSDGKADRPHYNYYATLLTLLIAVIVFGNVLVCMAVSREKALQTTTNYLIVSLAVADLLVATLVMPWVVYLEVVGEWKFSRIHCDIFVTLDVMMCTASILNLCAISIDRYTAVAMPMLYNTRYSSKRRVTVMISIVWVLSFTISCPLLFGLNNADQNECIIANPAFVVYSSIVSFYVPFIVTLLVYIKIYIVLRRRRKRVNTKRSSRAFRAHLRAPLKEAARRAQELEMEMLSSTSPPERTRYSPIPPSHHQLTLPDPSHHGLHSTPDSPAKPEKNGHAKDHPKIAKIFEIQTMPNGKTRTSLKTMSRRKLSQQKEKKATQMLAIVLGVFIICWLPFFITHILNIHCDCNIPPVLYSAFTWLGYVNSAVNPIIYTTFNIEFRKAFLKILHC

In the case of `O=C(O)COCCN1CCN(C2=Nc3ccccc3Oc3ccc(Cl)cc32)CC1` [Compound 6], the “increase in Tm” value on purified human Slack is 9.3 °C. Further, the “melting temperature Tm of Slack” value on purified human Slack amounted to 39.3 ± 0.9 °C. In addition, the binding inhibition result (at dopamine D1 receptor (10 µM); on dopamine D2S receptor (10 µM); in series [1] (10 µM); in series [2] (10 µM); in series [3] (10 µM)) was “substantial binding” throughout. Moreover, in the series with mice [4] (3–30 mg i.p.), the “motor function, accelerating rotarod test” value was “did not impair motor function”. Also, the chloroquine-induced scratching behavior result is “profound antipruritic effect” in the series on mice [5] (15 mg kg−1 p.o.) and “ameliorated scratching behavior in a dose‐dependent manner” in the series on mice [5] (3, 10, or 30 mg kg−1 i.p. 15 min prior to s.c. chloroquine, scratching bouts over 30 min).
Turning to `CN1CCN(C2=Nc3ccccc3Oc3ccc(Cl)cc32)CC1` [Loxapine, reference compound], the “increase in Tm” value at purified human Slack turned out to be 7.8 °C. The “melting temperature Tm of Slack” value on purified human Slack came to 37.8 ± 1.3 °C. In addition, the inhibition at 10 µM (at dopamine D1 receptor (read-out: binding inhibition); on dopamine D2S receptor (read-out: binding inhibition); in series [1] (read-out: binding inhibition); in series [2] (read-out: binding inhibition); in series [3] (read-out: binding inhibition)) was above 50% each time. Further, in the series with mice [4] (dose of ≥ 0.39 mg kg−1 i.p.), the “motor function, accelerating rotarod test” value was “markedly reduced the ability of the mice to perform”. In addition, the chloroquine-induced scratching behavior result in the series on mice [5] (wildtype mice, systemic low dose, preliminary experiments) was “considerably alleviated”.
